Measurements taken from US20180099023A1, “METHODS OF TREATING IRON OVERLOAD” (La Jolla Pharmaceutical Company, priority 2016, published 2018).

Assays:
Assay type in all cases: in vivo, human
serum iron [1] = assay: Serum iron after a single subcutaneous dose of hepcidin in patients (Example 1)
Description: Patients were recruited for a multi-day study to observe serum iron levels following administration of hepcidin. All patients who were recruited had either refractory or hemolytic anemia or hemochromatosis. Patients are divided into cohorts and subsequently treated with hepcidin. Treatment consisted of a single subcutaneous (SC) dose of hepcidin on Day 1. Dose escalation with new cohorts occurred only after the patients at each dose level had been observed for a minimum of 3 days and no drug related toxicity had been observed. The starting dose level was 1 mg given via SC injection on Day 1. Doses ranged from 1 mg to 30 mg. Patient cohorts and dosing can be found in Table 1:
Patients were admitted to the research unit the day before the administration of study drug and discharged following assessments 48 hours post dose. Serum iron, ferritin, transferrin, total iron binding capacity, and unsaturated iron binding capacity were measured on Day 1(baseline) and Day 7 (end of study). Serum iron was also measured at 2, 4, 8, 24, and 48 hours post dosing.

serum iron [2] = assay: Hepcidin administration in healthy subjects (Example 3)
Experimental: This study enrolled 32 healthy adult subjects in 4 dose groups of 8 subjects per cohort, with 6 subjects assigned to hepcidin treatment and 2 subjects assigned to placebo in each cohort. The starting dose was 5 mg of hepcidin or placebo; subsequent dose groups received 10 mg, 20 mg, and 30 mg, respectively. Subjects received between one and three 1-mL subcutaneous (SC) injections to deliver the desired dose level. Hepcidin concentration was either 5 mg/mL or 10 mg/mL. For data analysis purposes, placebo subjects for all cohort groups were pooled.

serum iron [3] = assay: Hepcidin administration in patients at risk for iron overload disorders (Example 2)
Experimental: Eighteen patients at risk for iron overload disorders (i.e., refractory or hemolytic anemia or hemochromatosis) received one or two 1-mL subcutaneous injections to achieve the desired dose level (1 mg, 5 mg, 10 mg, 20 mg, or 30 mg). Hepcidin concentration ranged from 1 to 15 mg/mL.

[4] = Baseline (pre-dose) to Day 8/End of Study

Substance: hepcidin: 25-amino acid peptide with the amino acid sequence set forth in SEQ ID NO:1 (DTHFPICIFCCGCCHRSKCGMCCKT)
- Percent Change in Serum Iron from Baseline to Hour 8 (serum iron [1]; 1 mg single SC dose, n = 3, patients with refractory or hemolytic anemia or hemochromatosis): −14.2% (p = 0.203)
- dose response of serum iron reduction (serum iron [1]; 1 mg to 20 mg, FIG. 1, p-0.009 for dose response): dose-dependent, statistically significant reduction in serum iron
- Percent Change in Serum Iron from Baseline to Hour 8 (serum iron [1]; 5 mg single SC dose, n = 3, patients with refractory or hemolytic anemia or hemochromatosis): −26.7% (p = 0.380)
- Percent Change in Serum Iron from Baseline to Hour 8 (serum iron [1]; 10 mg single SC dose, n = 3, patients with refractory or hemolytic anemia or hemochromatosis): −45.5% (p = 0.077)
- reduction of serum iron from baseline to hour 8 (serum iron [1]; 20 mg dose level, p=0.001): 55.7%
- Percent Change in Serum Iron from Baseline to Hour 8 (serum iron [1]; 20 mg single SC dose, n = 6, patients with refractory or hemolytic anemia or hemochromatosis): −55.7% (p = 0.001)
- reduction of serum iron from baseline to the end of day 7 (serum iron [1]; subjects administered 1 mg, 5 mg, 10 mg or 20 mg, serum iron had not returned to baseline through day 7): 18.0%
- serum iron rebound (serum iron [1]; subjects administered at least 30 mg): rebound effect which resulted in above-baseline serum iron levels within 48 hours of treatment
- Unsaturated iron binding capacity (UIBC) change from baseline (serum iron [2]; Day 8): no trends in changes from baseline
- Ferritin change from baseline (serum iron [2]; Day 8, all treatment groups): increased
- TSAT % change from baseline (serum iron [2]; Day 8, all treatment groups): increased
- total iron binding capacity (TIBC) change from baseline (serum iron [2]; Day 8, all treatment groups): increased
- transferrin change from baseline (serum iron [2]; Day 8, all treatment groups): increased
- anti-drug antibodies (serum iron [2]; healthy subjects): No anti-drug antibodies were detected
- maximum reduction in serum iron, 20 mg versus 30 mg (serum iron [2]; healthy subjects): no apparent difference
- time for serum iron levels to return to baseline (serum iron [2]; healthy subjects): < 48 h
- dose response of serum iron reduction (serum iron [2]; healthy subjects, 5 to 30 mg): larger reductions in serum iron generally associated with increases in dose up to 20 mg
- dose response of serum iron decrease (serum iron [3]; 1 mg to 30 mg SC): greater decrease in serum iron at higher doses
- Mean maximum percentage reduction in serum iron (serum iron [3]; 20-mg dose group, 8 hours post-dose): 58%
- TSAT % level change (serum iron [3]; [4]): Decreases
- ferritin level change (serum iron [3]; [4]): Decreases
- total iron binding capacity (TIBC) change (serum iron [3]; [4]): Decreases
- transferrin level change (serum iron [3]; [4]): Decreases
- serum iron levels compared to baseline (serum iron [3]; all five dose groups (1, 5, 10, 20, 30 mg SC)): decrease in serum iron levels compared to baseline was generally observed
- duration of serum iron reduction (serum iron [3]; most patients): sustained up to Day 8 in most patients
- anti-drug antibodies (serum iron [3]; patients at risk for iron overload disorders): No anti-drug antibodies were detected
